Results on four molecules are retold here after US7371555B2, “Polypeptides having α-H-α-amino acid amide racemase activity and nucleic acids encoding the same” (DSM IP Assets B.V., priority 2002, dated 2008).

The test system of test [1] is CFE from E. coli DH10B/pOa(1)PLV49B10 combined with the L-aminopeptidase from Pseudomonas putida ATCC 12633. The test is described as follows: Racemase activity test with DL-2-amino-5-[1,3]dioxolan-2-yl-pentanoic acid amide, CFE combined with L-aminopeptidase (Example 12). It is filed as biochemical, Ochrobactrum anthropi IA; Pseudomonas putida ATCC 12633. The procedure:
(§1) A reaction mixture of 10 ml (total volume including enzyme preparations) was prepared containing 50 mM HEPES-NaOH, pH 8.0, 20 μM pyridoxal-5-phosphate, 0.4 mg/ml BSA, 1 mM dithiothreitol, and 75 mM of DL-2-aminobutyric acid amide. Reaction was started by the addition of 0.4 ml of the thawed CFE of E. coli DH10B/pOa(1)PLV49B10 and 0.17 ml of a solution containing L-aminopeptidase from P. putida ATCC 12633. The reaction mixture was incubated at 37° C. for 18 h. At certain time intervals samples of 1 ml were taken and transferred to vials containing 1 ml of MeOH to stop the reaction. Analysis of these samples to determine the concentrations L- and D-2-aminobutyric acid and L- and D-2-aminobutyric acid amide was done by HPLC according to the protocol of Example 11.
In a very similar set-up, the combined activity of the α-H-α-amino acid amide racemase from O. anthropi IA and the L-aminopeptidase from P. putida ATCC 12633 was determined towards the more complex substrate DL-2-amino-5-[1,3]dioxolan-2-yl-pentanoic acid amide. The molecular structure of this amide can be found in the substrate table in Example 8. In this experiment 1 ml of the thawed CFE from E. coli DH10B/pOa(1)PLV49B10 was used together with 1 ml of a solution containing L-aminopeptidase from P. putida ATCC 12633. Reaction proceeded for 120 hours. Analysis of these samples to determine the concentrations L- and D-2-amino-5-[1,3]dioxolan-2-yl-pentanoic acid and L- and D-2-amino-5-[1,3]dioxolan-2-yl-pentanoic acid amide was done by HPLC according to the following protocol. • column: Crownether Cr(−) (150 mm×4.0 mm ID) • eluent: Perchloric acid in water, pH=1.0 • flow: 1.2 ml/min. • column temp.: 18° C. • inj. volume: 20 μl • detection: fluorescence detection after post-column reaction with o-phthalaldehyde and 2-mercaptoethanol in 0.4 M borate buffer. (wavelength ex=338 nm and em>420 nm)

In test [2] the test system is lyophilized O. anthropi IA cells. The test is described as follows: α-H-α-amino acid amide racemase activity of lyophilized O. anthropi IA cells. It is filed as biochemical, Ochrobactrum anthropi IA. To be noted: control experiment. The procedure: O. anthropi IA cells were cultivated in Medium A containing DL-α-amino-ε-caprolactam (2 g/l) as sole nitrogen source. After incubation at 28° C. and 200 rpm for three days (OD620 nm=4.7), cells were harvested by centrifugation, washed in 20 mM HEPES-NaOH buffer of pH 7.7 and lyophilized.
The assay mixture consisted of 10 mM HEPES-NaOH buffer (pH 7.7) containing toluene (2,5 v/v %), pyridoxal-5-phosphate (20 μM), D- or L-leucine amide (2.5 m %) and in some cases EDTA (20 mM). Per assay 150 mg of lyophilized cells were used. Chemical blanks (with the assay mixture without the O. anthropi IA cells) were used as a negative control. All reaction mixtures (including the blanks) were incubated for approximately 72 hours at 40° C. before the reaction was stopped by the addition of 9 volumes of 1 M H3PO4. Finally, the reaction mixtures were analyzed by HPLC to determine the concentrations of D- and L-leucine amide and of D- and L-leucine. o-Phthaldehyde in combination with D-3-mercapto-2-methylpropionic acid was used in this HPLC method as a chiral reagent for the enantioseparation of these amino compounds (Duchateau, et al., J. Chromatogr. (1992) 623:237-245).
In a number of reactions EDTA was added to inhibit L- and/or D-specific amidase(s) present in the O. anthropi IA cells.
Without EDTA, amidases convert the substrate and/or product α-H-α-amino acid amides into α-H-α-amino acids thereby preventing direct detection of the other α-H-α-amino acid amide enantiomer as racemization product. […] Formation of L-leucine from D-leucine amide could not be detected in the chemical blank.

In test [3] the test system is CFE from E. coli DH10B/pOa(1)PLV49B10 containing the α-H-α-amino acid amide racemase from O. anthropi IA. The test is described as follows: Racemase activity test with DL-2-aminobutyric acid amide and CFE from E. coli DH10B/pOa(1)PLV49B10 (Example 10). The conditions noted are these: Strain A; for Conversion: conversion to the L-acid. It is filed as biochemical, Ochrobactrum anthropi IA. On the procedure:
Also in this case, E. coli TOP10/pBAD/Myc-HisC was treated in exactly the same way to serve as negative control.
To determine the activity of the CFE from E. coli DH10B/pOa(1)PLV49B10 and E. coli TOP10/pBAD/Myc-HisC, reaction mixtures of 10 ml each were prepared containing 50 mM HEPES-NaOH, pH 8.0, 20 μM pyridoxal-5-phosphate, 0.4 mg/ml BSA, 1 mM dithiothreitol, and 75 mM of DL-2-aminobutyric acid amide. Reactions were started by the addition of 1 ml of the thawed CFE of E. coli DH10B/pOa(1)PLV49B10 or E. coli TOP10/pBAD/Myc-HisC (blank) and were incubated at 37° C. for 21.5 h. At regular time intervals samples of 1 ml were taken and transferred to vials containing 1 ml of MeOH to stop the reaction. Analysis of these samples to determine the concentrations L- and D-2-aminobutyric acid and L- and D-2-aminobutyric acid amide was done by HPLC according to the following protocol. • column: Sumichiral OA5000 from Sumika (150×4.6 mm I.D., 5μ)+guard column • eluent: 4 mM CuSO4 in water • flow: 1 ml/min. • column temp.: 10° C. • inj. volume: 6 μl • detection: fluorescence detection after post-column reaction with o-phthalaldehyde and 2-mercaptoethanol in 0.4 M borate buffer with addition of EDTA (wavelength ex=338 nm and em>420 nm)

The test system of test [4] is CFE from E. coli DH10B/pOa(1)PLV49B10 combined with the L-aminopeptidase from Pseudomonas putida ATCC 12633. The test is described as follows: Racemase activity test with DL-2-aminobutyric acid amide, CFE combined with L-aminopeptidase (Example 11). It is filed as biochemical, Ochrobactrum anthropi IA; Pseudomonas putida ATCC 12633. The procedure:
In this experiment, the E. coli DH10B/pOa(1)PLV49B10 CFE from Example 11 was used. It was combined with a preparation containing the L-aminopeptidase from P. putida ATCC 12633. This is the same L-enantioselective enzyme as was used as L-aminopeptidase help solution in the screening of the O. anthropi IA and A. nicotianae NCIMB 41126 gene libraries (Examples 3 and 3A).
as §1

Each structure is given as a SMILES string.

Turning to `NC(=O)C(N)CCCC1OCCO1` (racemic) [DL-2-amino-5-[1,3]dioxolan-2-yl-pentanoic acid amide], in test [1] (incubation time 0 h), the Conversion was 5.6%, the D-Abu is 0.0 mM, the D-Abu amide is 36.6 mM and the L-Abu is given as 4.3 mM. The L-Abu amide in test [1] (incubation time 0 h) is on record as 36.5 mM. In test [1] (incubation time 3.6 h), the Conversion is recorded as 49.5%, the D-Abu was determined as 0.0 mM, the D-Abu amide is given as 35.7 mM and the L-Abu is 37.6 mM. Moreover, the L-Abu amide in test [1] (incubation time 3.6 h) is on record as 2.7 mM. Also, in test [1] (incubation time 22.1 h), the Conversion is given as 56.6%, the D-Abu came to 0.1 mM, the D-Abu amide came out at 29.9 mM and the L-Abu was determined as 40.3 mM. Also, in test [1] (incubation time 22.1 h), the L-Abu amide turned out to be 1.0 mM. For the same molecule, in test [1] (incubation time 53.2 h), the Conversion was 61.1%, the D-Abu stood at 0.1 mM, the D-Abu amide is recorded as 27.4 mM and the L-Abu is on record as 43.5 mM. The L-Abu amide in test [1] (incubation time 53.2 h) turned out to be 0.1 mM. In test [1] (incubation time 120.2 h), the D-Abu is given as 0.4 mM, the D-Abu amide was 23.7 mM, the L-Abu is on record as 46.0 mM and the L-Abu amide is 0.1 mM.

`CC(C)C[C@H](N)C(=O)O` [leucine]: in test [2], the racemization of leucine entry is on record as “did not racemize”.

Regarding `CC[C@@H](N)C(N)=O` [D-aminobutyric acid amide], in test [3] (incubation time 21.5 h), the Conversion stood at 85.4%.

With `CCC(N)C(N)=O` (racemic) [DL-2-aminobutyric acid (Abu) amide, DL-2-aminobutyric acid amide], the Conversion was found to be 0.7% in test [4] (incubation time 0 h); 17.1% in test [4] (incubation time 0.5 h); 42.4% in test [4] (incubation time 1.0 h); 51.9% in test [4] (incubation time 1.5 h); 56.7% in test [4] (incubation time 2.0 h); 97.3% in test [4] (incubation time 18 h). Besides, the Conversion in test [3] (incubation time 0 h) was determined as 1.6%; in test [3] (incubation time 0.75 h), 15.2%; in test [3] (incubation time 2 h), 35.7%; in test [3] (incubation time 4.65 h) it was 61.8%; in test [3] (incubation time 8.25 h) it was 75.1%; in test [3] (incubation time 21.5 h) it was 83.9%. Also, the D-Abu was determined as 0.0 mM in test [4] (incubation time 0 h); 0.0 mM in test [4] (incubation time 0.5 h); 0.1 mM in test [4] (incubation time 1.0 h); 0.0 mM in test [4] (incubation time 1.5 h); 0.0 mM in test [4] (incubation time 2.0 h); 1.6 mM in test [4] (incubation time 18 h). Also, the D-Abu in test [3] (incubation time 0 h) is 0.0 mM; in test [3] (incubation time 0.75 h) it was 0.0 mM; in test [3] (incubation time 2 h) it was 0.0 mM; in test [3] (incubation time 4.65 h) it was 0.1 mM; in test [3] (incubation time 8.25 h), 0.5 mM; in test [3] (incubation time 21.5 h), 1.4 mM. Moreover, the D-Abu amide in test [4] (incubation time 0 h) came to 36.2 mM; in test [4] (incubation time 0.5 h) it was 34.6 mM; in test [4] (incubation time 1.0 h), 36.4 mM; in test [4] (incubation time 1.5 h), 33.0 mM; in test [4] (incubation time 2.0 h), 30.4 mM; in test [4] (incubation time 18 h), 0.4 mM. Also, the D-Abu amide was found to be 42.3 mM in test [3] (incubation time 0 h); 39.6 mM in test [3] (incubation time 0.75 h); 34.7 mM in test [3] (incubation time 2 h); 20.8 mM in test [3] (incubation time 4.65 h); 12.4 mM in test [3] (incubation time 8.25 h); 6.7 mM in test [3] (incubation time 21.5 h). In addition, the L-Abu in test [4] (incubation time 0 h) was determined as 0.5 mM; in test [4] (incubation time 0.5 h) it was 11.7 mM; in test [4] (incubation time 1.0 h) it was 32.2 mM; in test [4] (incubation time 1.5 h), 38.5 mM; in test [4] (incubation time 2.0 h) it was 41.9 mM; in test [4] (incubation time 18 h), 70.8 mM. The L-Abu in test [3] (incubation time 0 h) is listed as 1.4 mM; in test [3] (incubation time 0.75 h), 12.3 mM; in test [3] (incubation time 2 h), 29.1 mM; in test [3] (incubation time 4.65 h), 52.3 mM; in test [3] (incubation time 8.25 h), 64.9 mM; in test [3] (incubation time 21.5 h) it was 71.7 mM. The L-Abu amide was 34.1 mM in test [4] (incubation time 0 h); 22.2 mM in test [4] (incubation time 0.5 h); 7.3 mM in test [4] (incubation time 1.0 h); 2.7 mM in test [4] (incubation time 1.5 h); 1.7 mM in test [4] (incubation time 2.0 h); 0.0 mM in test [4] (incubation time 18 h). Besides, the L-Abu amide worked out at 40.5 mM in test [3] (incubation time 0 h); 29.3 mM in test [3] (incubation time 0.75 h); 17.8 mM in test [3] (incubation time 2 h); 11.5 mM in test [3] (incubation time 4.65 h); 8.6 mM in test [3] (incubation time 8.25 h); 5.8 mM in test [3] (incubation time 21.5 h).
